Columns and labels:
Experiment in all cases: relative viability (nuclei count vs DMSO), 5 days (fraction); higher = more cells survive
[1] = compound: CC1CC(=O)N(C2=CN=C(N=C2N1C3CCCC3)NC4=C(C=C(C=C4)C(=O)NC5CCN(CC5)C)OC)C [NPK76-II-72-1] + CC1(C)CCC(c2ccc(Cl)cc2)=C(CN2CCN(c3ccc(C(=O)NS(=O)(=O)c4ccc(N[C@H](CCN5CCOCC5)CSc5ccccc5)c(S(=O)(=O)C(F)(F)F)c4)cc3)CC2)C1 [Navitoclax] (partner 0.5 µM)
Method in brief: (§1)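 Values are medians from duplicate plates. Each reflects relative viability, defined as the nuclei count of treated wells over that of vehicle wells. Lung cancer cell lines in 1536-well plates were pin-tool dosed one day after seeding with one drug alone or with a fixed anchor-drug dose plus five library-drug doses (not always all listed) in √10 steps, then fixed, stained and imaged at 4× after 5 days.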

[2] = compound: CC1CC(=O)N(C2=CN=C(N=C2N1C3CCCC3)NC4=C(C=C(C=C4)C(=O)NC5CCN(CC5)C)OC)C [NPK76-II-72-1] + CS(=O)(=O)CCNCc1ccc(-c2ccc3ncnc(Nc4ccc(OCc5cccc(F)c5)c(Cl)c4)c3c2)o1 [Lapatinib] (partner 2 µM)
Method in brief: as §1

BI-2536 + Luminespib = compound: CC[C@@H]1C(=O)N(C)c2cnc(Nc3ccc(C(=O)NC4CCN(C)CC4)cc3OC)nc2N1C1CCCC1 [BI-2536] + CCNC(=O)c1noc(-c2cc(C(C)C)c(O)cc2O)c1-c1ccc(CN2CCOCC2)cc1 [Luminespib] (partner 0.01 µM)
Method in brief: as §1

BI-2536 + Dasatinib = compound: CC[C@@H]1C(=O)N(C)c2cnc(Nc3ccc(C(=O)NC4CCN(C)CC4)cc3OC)nc2N1C1CCCC1 [BI-2536] + Cc1nc(Nc2ncc(C(=O)Nc3c(C)cccc3Cl)s2)cc(N2CCN(CCO)CC2)n1 [Dasatinib] (partner 0.075 µM)
Method in brief: as §1

Cell Line | relative viability ([1]; first compound 0.01 µM) | relative viability ([1]; first compound 0.03162 µM) | relative viability ([1]; first compound 0.1 µM) | relative viability ([1]; first compound 0.3162 µM) | relative viability ([1]; first compound 1 µM) | relative viability ([2]; first compound 0.01 µM) | relative viability ([2]; first compound 0.03162 µM) | relative viability ([2]; first compound 0.1 µM) | relative viability ([2]; first compound 0.3162 µM) | relative viability ([2]; first compound 1 µM) | relative viability (BI-2536 + Luminespib; first compound 0.01 µM) | relative viability (BI-2536 + Luminespib; first compound 0.03162 µM) | relative viability (BI-2536 + Luminespib; first compound 0.1 µM) | relative viability (BI-2536 + Luminespib; first compound 0.3162 µM) | relative viability (BI-2536 + Luminespib; first compound 1 µM) | relative viability (BI-2536 + Dasatinib; first compound 0.01 µM) | relative viability (BI-2536 + Dasatinib; first compound 0.03162 µM) | relative viability (BI-2536 + Dasatinib; first compound 0.1 µM) | relative viability (BI-2536 + Dasatinib; first compound 0.3162 µM) | relative viability (BI-2536 + Dasatinib; first compound 1 µM)
EKVX | 0.909 | 1.03 | 0.865 | 0.648 | 1.13 | 0.206 | 0.193 | 0.22 | 0.222 | 0.236 | 0.911 | 0.955 | 0.8 | 0.292 | 0.123 | 0.742 | 0.653 | 0.586 | 0.399 | 0.174
NCI-H1651 | 0.915 | 1.04 | 1.11 | 0.953 | 1.1 | 0.835 | 0.928 | 0.905 | 0.807 | 0.837 | 0.689 | 1.04 | 0.333 | 0.146 | 0.139 | 0.138 | 0.376 | 0.075 | 0.1 | 0.0509
NCI-H1944 | 0.997 | 1.02 | 1.05 | 0.971 | 1.06 | 0.81 | 0.808 | 0.904 | 0.825 | 0.71 | 0.694 | 0.794 | 0.863 | 0.107 | 0.136 | 0.218 | 0.232 | 0.177 | 0.126 | 0.132
SW 1573 | 1.03 | 0.973 | 0.812 | 0.948 | 0.988 | 1.03 | 1.09 | 1.04 | 1 | 1.16 | 0.123 | 0.117 | 0.152 | 0.122 | 0.0874 | 0.563 | 0.222 | 0.0892 | 0.0839 | 0.0938
A-427 | 1.01 | 0.941 | 0.92 | 1.05 | 0.96 | 1.07 | 1.04 | 1.02 | 1.03 | 0.953 | 0.841 | 0.829 | 0.525 | 0.144 | 0.137 | 0.579 | 0.752 | 0.44 | 0.12 | 0.118
NCI-H2347 | 0.761 | 0.698 | 0.728 | 0.789 | 0.868 | 0.95 | 1.06 | 0.857 | 0.717 | 1.08 | – | 0.517 | 0.41 | 0.378 | 0.272 | – | 0.293 | 0.285 | 0.278 | 0.167
NCI-H1355 | 0.881 | 0.959 | 0.928 | 0.871 | 0.993 | 0.922 | 0.933 | 0.967 | 0.931 | 1.02 | 0.612 | 0.547 | 0.546 | 0.2 | 0.187 | 0.694 | 0.78 | 0.359 | 0.23 | 0.199
PC-3 [JPC-3] | 0.742 | 0.806 | 0.735 | 0.672 | 0.848 | 0.479 | 0.453 | 0.448 | 0.463 | 0.439 | 0.705 | 0.683 | 0.496 | 0.215 | 0.205 | 1.02 | 0.925 | 0.879 | 0.266 | 0.188

— the supplement of paper PMC10307832
